Measurements reported in patent US5716950A, “Diazacycloalkanealkylsulfonamide derivatives” (Nippon Shoji Kabushiki Kaisha, priority 1994, dated 1998).
Like-named read-outs stand apart in the source and are kept apart here.

Legend:
[1] = system: passive cutaneous anaphylaxis (PCA); assay: Activity of suppressing passive cutaneous anaphylaxis (PCA); format: in vivo, Male Wistar rats; conditions: for inhibition in vivo at 10 mg/kg: Rattus norvegicus, po, 1 h, 10 mg/kg-po, 1 hour before antigen challenge, read-out: % suppression of rat PCA
Procedure: Test compounds were examined on their antiallergic activities. […] After 48 hours, 1.0 ml of 0.5 % Evans Blue saline solution containing DNP.BSA (1 mg in protein) was injected through the tail vein to induce allergic reaction. After 30 minutes, the rats were sacrificed by bleeding and the skin of back where dye was leaked out was flayed and put it into 20 ml test tube with ground stopper. Thereto was added 1.0 ml of 1N KOH aqueous solution and then it was allowed to stand at 37° C. in incubator overnight for lysing. To this solution was added 8.3 ml of a mixture of acetone and 0.6N phosphoric acid (13:5) and the mixture was mixed well and then was filtered to remove the insoluble materials.
The test compounds were administered orally 1 hour before the antigen challenge. Suppression rate was expressed by percentage to the value in control where 0.5% aqueous methylcellulose solution was orally administered.

[2] = system: extracted ileum (histamine contraction); assay: Antihistaminic activity: suppression of histamine-induced contraction of extracted ileum; design: species or system Female Hartley guinea pig; conditions: histamine 3×10^-7 M; guinea pig ileum; 50% suppression of contraction; read-out: anti-His in extracted ileum EC50
Procedure: Female Hartley guinea pig (weighing 500 to 650 g) were sacrificed and the ileum (length of about 10 to 25 cm) was extracted from the ileocecum to prepare a specimen (length of 3 cm). […] After allowing to stand for 60 minutes to make the specimen stable, a histamine (3×10^-7 M) was applied to the specimen at single application. Contraction of the specimen was determined and recorded using isotonic transducer. After repeating application of a histamine to make the contraction constant, a diluted solution of the test compound was applied. Three minutes after the application, a histamine was then added and an activity of suppressing contraction was examined.

[3] = system: mouse biphasic allergic dermal reaction; assay: Mouse Biphasic Allergic Dermal Reaction; format: in vivo, Female Balb/c mice; conditions: for inhibition in vivo at 0.1 mg/kg / inhibition in vivo at 1 mg/kg / inhibition in vivo at 3 mg/kg / inhibition in vivo at 10 mg/kg / inhibition in vivo at 30 mg/kg: Mus musculus; for inhibition in vivo at 0.1 mg/kg: 0.1 mg/kg (i.p.); for inhibition in vivo at 1 mg/kg: dexamethasone 1.0 mg/kg; for suppression of the late allergic reaction (in words): edema after 24 hours; for suppression of the immediate allergic reaction (in words): edema after 1 hour
Procedure: Female Balb/c mice (weighing 18 to 25 g) were subjected to passive sensitization by intravenous administration of 1 ml of anti-DNP monoclonal IgE antibody showing 1:1024 of antibody titer. 24 hours after the sensitization, 25 μl of 0.15% dinitrofluorobenzene (DNFB) were applied to both sides of right and left auricles of mouse for inducing allergic reactions. Thickness of auricles were measured using Dial Thickness Gauge before the challenge with DNFB, and 1 and 24 hours after the challenge. And then, increase in thickness of auricles at 1 hour after the challenge (edema caused by immediate allergic reaction) and that at 24 hours after the challenge (edema caused by late allergic reaction) were calculated against the thickness of auricles before the challenge with DNFB, respectively.
Suppression rate was expressed by relative ratio (%) to the value in control in which a solvent was administered.
Test compounds, diphenhydramine which is a existing classical antihistamic drug, amlexanox which is an antiallergic drug and dexamethasone which is a steroidal drug were administered orally (partly intraperitoneally) once before antigen challenge.
The above test was performed by using a mouse biphasic allergic dermal reaction model which was a new model [see, Sakurai T, Inagaki, N. and Nagai, H Life Sci., 54, PL291-295 (1994)]. In this model, the immediate allergic reaction was induced by mediator release from mast cell at 1 hour after the challenge, and the late allergic reaction with inflammatory cells such as eosinophil (edema after 24 hours) was induced after 24 hours from the challenge.

[4] = po, 1 h, read-out: immediate edema (1 hr) suppression (%)
[5] = po, 24 h, read-out: late edema (24 hr) suppression (%)

Q: With `O=S(=O)(CCCCCCN1CCN(C(c2ccccc2)c2ccccc2)CC1)NC1CCCCC1` [Example 149] as the compound, how does the inhibition in vivo at 10 mg/kg [1] read?
A: Its inhibition in vivo at 10 mg/kg is 97.7%.

Q: And the EC50 [2]?
A: Its EC50 is 310 nM.

Q: How did the inhibition in vivo at 10 mg/kg [1] turn out when `O=S(=O)(O)CCCCN1CCN(C(c2ccc(F)cc2)c2ccccn2)CC1` (stereo not shown) [Ref. Ex. 4, 4-[4-[4-fluorophenyl-(2-pyridyl)methyl]-1-piperazinyl]butylsulfonic acid, reference compound] was run?
A: Its inhibition in vivo at 10 mg/kg is 0%.

Q: And the “antiallergic activity / activity of suppressing PCA (in words)” value ([1]; rat, in vivo)?
A: Its value is “did not show an antiallergic activity”.

Q: `C[C@@H]1C[C@H]2[C@@H]3CCC4=CC(=O)C=C[C@]4(C)[C@@]3(F)[C@@H](O)C[C@]2(C)[C@@]1(O)C(=O)CO` [dexamethasone, reference compound] was tested. Which inhibition in vivo at 0.1 mg/kg ([3]; ip, 1 h, read-out: immediate edema (1 hr) suppression (%)) did it give?
A: The inhibition in vivo at 0.1 mg/kg was 32.4%.

Q: What about the inhibition in vivo at 1 mg/kg ([3]; ip, 1 h, (i.p.) printed only at the 0.1 line, read-out: immediate edema (1 hr) suppression (%)) of the same compound?
A: The inhibition in vivo at 1 mg/kg was 32.4%.

Q: And the inhibition in vivo at 3 mg/kg ([3]; ip, 1 h, dexamethasone 3.0 mg/kg, (i.p.) printed only at the 0.1 line, read-out: immediate edema (1 hr) suppression (%))?
A: The inhibition in vivo at 3 mg/kg was 11.8%.

Q: And the inhibition in vivo at 0.1 mg/kg ([3]; ip, 24 h, read-out: late edema (24 hr) suppression (%))?
A: Its inhibition in vivo at 0.1 mg/kg is 34.3%.

Q: And the inhibition in vivo at 1 mg/kg ([3]; ip, 24 h, (i.p.) printed only at the 0.1 line, read-out: late edema (24 hr) suppression (%))?
A: The inhibition in vivo at 1 mg/kg was 42.9%.

Q: What about the inhibition in vivo at 3 mg/kg ([3]; ip, 24 h, dexamethasone 3.0 mg/kg, (i.p.) printed only at the 0.1 line, read-out: late edema (24 hr) suppression (%)) of the same compound?
A: Its inhibition in vivo at 3 mg/kg is 45.7%.

Q: What about the “suppression of the late allergic reaction (in words)” value [3] of the same compound?
A: Its value is “showed the strong activity of suppressing the late allergic reaction”.

Q: Which results are given for `O=S(=O)(CCCCN1CCN(C(c2ccccc2)c2ccc(Cl)cc2)CC1)NC1CC1` (stereo not shown) [Example 113]?
A: inhibition in vivo at 10 mg/kg [1]: 87.5%; EC50 [2]: 710 nM

Q: How did the inhibition in vivo at 10 mg/kg [1] turn out when `O=S(=O)(CCCCCCN1CCN(C(c2ccccc2)c2ccccn2)CC1)NC1CC1` (stereo not shown) [Example 123] was run?
A: The inhibition in vivo at 10 mg/kg was 83.5%.

Q: What about the EC50 [2] of the same compound?
A: The EC50 was 330 nM.

Q: How did the inhibition in vivo at 10 mg/kg [1] turn out when `O=S(=O)(CCCCCCN1CCN(C(c2ccccc2)c2ccccc2)CC1)NC1CCCC1` [Example 141] was run?
A: Its inhibition in vivo at 10 mg/kg is 87.4%.

Q: What about the EC50 [2] of the same compound?
A: The EC50 was 210 nM.

Q: Which results are given for `CN(C)S(=O)(=O)CCCCCCN1CCN(C(c2ccc(F)cc2)c2ccccn2)CC1` (stereo not shown) [Example 82]?
A: inhibition in vivo at 10 mg/kg [1]: 86.8%; EC50 [2]: 790 nM

Q: What does the source list for `O=S(=O)(CCCCCN1CCN(C(c2ccccc2)c2ccc(Cl)cc2)CC1)NC1CC1` (stereo not shown) [Example 114]?
A: inhibition in vivo at 10 mg/kg [1]: 83.5%; EC50 [2]: 560 nM

Q: With `CN(C)S(=O)(=O)CCCCCCN1CCN(C(c2ccccc2)c2ccc(F)cc2)CC1` (stereo not shown) [Example 68] as the compound, how does the inhibition in vivo at 10 mg/kg [1] read?
A: The inhibition in vivo at 10 mg/kg was 94.5%.

Q: What about the EC50 [2] of the same compound?
A: Its EC50 is 370 nM.

Q: What does the source list for `CC(C)NS(=O)(=O)CCCCCN1CCN(C(c2ccccc2)c2ccc(Cl)cc2)CC1` (stereo not shown) [Example 110]?
A: inhibition in vivo at 10 mg/kg [1]: 88.3%; EC50 [2]: 570 nM

Q: Which inhibition in vivo at 10 mg/kg [1] does the source give for `CCNS(=O)(=O)CCCCCCCN1CCN(C(c2ccccc2)c2ccc(Cl)cc2)CC1` (stereo not shown) [Example 107] here?
A: Its inhibition in vivo at 10 mg/kg is 87.8%.

Q: What about the EC50 [2] of the same compound?
A: Its EC50 is 620 nM.

Q: Which results are given for `O=S(=O)(CCCCCN1CCN(C(c2ccccc2)c2ccc(Cl)cc2)CC1)NC1CCC1` (stereo not shown) [Example 127]?
A: inhibition in vivo at 10 mg/kg [1]: 90.7%; EC50 [2]: 410 nM

Q: `CCNS(=O)(=O)CCCCCCCCN1CCN(C(c2ccc(F)cc2)c2ccccn2)CC1` (stereo not shown) [Example 34] was tested. Which inhibition in vivo at 10 mg/kg [1] did it give?
A: The inhibition in vivo at 10 mg/kg was 84.8%.

Q: What about the EC50 [2] of the same compound?
A: The EC50 was 330 nM.

Q: `O=S(=O)(CCCCCCN1CCN(C(c2ccccc2)c2ccccc2)CC1)NC1CC1` [Example 126] was tested. Which inhibition in vivo at 10 mg/kg [1] did it give?
A: The inhibition in vivo at 10 mg/kg was 80.8%.

Q: What about the EC50 [2] of the same compound?
A: The EC50 was 300 nM.

Q: Which results are given for `O=S(=O)(CCCCCCN1CCN(C(c2ccccc2)c2ccccc2)CC1)NC1CCC1` [Example 134]?
A: inhibition in vivo at 10 mg/kg [1]: 87.1%; EC50 [2]: 580 nM

Q: What does the source list for `CCCNS(=O)(=O)CCCCCCN1CCN(C(c2ccccc2)c2ccc(Cl)cc2)CC1` (stereo not shown) [Example 36]?
A: inhibition in vivo at 10 mg/kg [1]: 77.5%; EC50 [2]: 560 nM

Q: How did the inhibition in vivo at 10 mg/kg [1] turn out when `O=S(=O)(CCCCCCCCCCN1CCN(C(c2ccc(F)cc2)c2ccccn2)CC1)NC1CC1` (stereo not shown) [Example 58] was run?
A: Its inhibition in vivo at 10 mg/kg is 76.5%.

Q: And the EC50 [2]?
A: Its EC50 is 350 nM.

Q: Which results are given for `CC(C)c1ccc2oc3nc(N)c(C(=O)O)cc3c(=O)c2c1` [amlexanox, reference compound]?
A: inhibition in vivo at 3 mg/kg [3, 4]: 38.5%; inhibition in vivo at 10 mg/kg [3, 4]: 38.5%; inhibition in vivo at 30 mg/kg [3, 4]: 50%; inhibition in vivo at 3 mg/kg [3, 5]: 12.1%; inhibition in vivo at 30 mg/kg [3, 5]: 6.1%; suppression of the immediate allergic reaction (in words) [3]: suppressed the immediate allergic reaction; suppression of the late allergic reaction (in words) [3]: did not suppress the late allergic reaction

Q: With `CN(C)CCOC(c1ccccc1)c1ccccc1` [diphenhydramine, reference compound] as the compound, how does the inhibition in vivo at 3 mg/kg ([3]; 1 h, 3.0 mg/kg, oral, read-out: immediate edema (1 hr) suppression (%)) read?
A: Its inhibition in vivo at 3 mg/kg is 17.8%.

Q: And the inhibition in vivo at 10 mg/kg ([3]; 1 h, 10.0 mg/kg, oral, read-out: immediate edema (1 hr) suppression (%))?
A: Its inhibition in vivo at 10 mg/kg is 13.3%.

Q: And the inhibition in vivo at 30 mg/kg ([3]; 1 h, 30.0 mg/kg, oral, read-out: immediate edema (1 hr) suppression (%))?
A: Its inhibition in vivo at 30 mg/kg is 53.3%.

Q: What about the inhibition in vivo at 30 mg/kg ([3]; 24 h, 30.0 mg/kg, oral, read-out: late edema (24 hr) suppression (%)) of the same compound?
A: The inhibition in vivo at 30 mg/kg was 14.3%.

Q: What about the “suppression of the immediate allergic reaction (in words)” value [3] of the same compound?
A: Its value is “suppressed the immediate allergic reaction”.

Q: What about the “suppression of the late allergic reaction (in words)” value [3] of the same compound?
A: Its value is “did not suppress the late allergic reaction”.
